Data: article PMC7849011, “Defining the Antimalarial Activity of Cipargamin in Healthy Volunteers Experimentally Infected with Blood-Stage Plasmodium falciparum” (Antimicrobial Agents and Chemotherapy, 2021)
“And” between values parts separate entries of the source, which are not always exact repeats. Equal values may be shown once.

Tests used:
[1] = test system: P. falciparum 3D7; experiment: Induced blood-stage malaria (IBSM) volunteer infection study: parasitemia by 18S rRNA qPCR; format: in vivo, Plasmodium falciparum; conditions: for Log10PRR48 (95%CI) / Parasite Clearance Half-Life (95%CI): 10 mg
Excerpt: A single cohort of eight subjects was inoculated intravenously with P. falciparum 3D7-infected human erythrocytes (approximately 1,800 viable parasites) as previously described ([24]). Parasite growth was monitored by collecting blood samples and performing quantitative PCR (qPCR) targeting the gene encoding P. falciparum 18S rRNA ([25]). […] The dose of cipargamin selected was predicted to be subtherapeutic based on preclinical modeling ([7]) and pharmacokinetic data obtained in previous clinical studies ([8]) and thus chosen to facilitate modeling to estimate the pharmacokinetic/pharmacodynamic relationship. To monitor total parasitemia, blood samples were collected for 18S rRNA qPCR before inoculation, on day 3, twice daily on days 4 to 6, pretreatment on day 7, and 4, 8, 12, 16, 24, 30, and 36 h posttreatment, twice daily from day 9 to day 11, and every 1 to 3 days until day 35. Blood samples for gametocytemia measurements were collected on day 11, every 1 to 3 days between day 15 and day 29, and on day 35. […] Analyses were performed in R version 3.3.0. The PRR and parasite clearance half-life were estimated using the slope of the optimal fit for the log-linear relationship of the parasitemia decay as described previously ([27]).

[2] = clinical; conditions: human, in vivo, 10 mg
Description: Blood samples were collected at the following time points after dosing to determine the cipargamin plasma concentration: 1, 2, 3, 4, 8, 12, 16, 24, 36, 48, 72, 96, and 120 h. Samples were analyzed by liquid chromatography-tandem mass spectrometry as previously described ([8]). Noncompartmental PK analysis was performed using WinNonlin Pro version 6.4.

[3] = Safety assessment (adverse events, clinical laboratory, ECG); format: in vivo, human
Description: Safety assessments were performed throughout the study from screening and included adverse event reporting, physical examination, vital signs, clinical laboratory evaluation (hematology, biochemistry, and urinalysis), electrocardiography (ECG), and malaria clinical score recording. The malaria clinical score served as a clinical indication of the severity of the induced malaria infection; 14 signs and symptoms commonly associated with malaria were graded using a 3-point scale (0 = absent, 1 = mild, 2 = moderate, and 3 = severe), and the values were summed in order to generate an overall score (with a maximum possible score of 42). The severity of AEs was graded in accordance with the Common Terminology Criteria for Adverse Events, version 4.03 (https://evs.nci.nih.gov/ftp1/CTCAE/CTCAE_4.03/CTCAE_4.03_2010-06-14_QuickReference_5x7.pdf).

[4] = test system: Plasmodium falciparum; conditions: cited from earlier work
[5] = test system: Plasmodium berghei; set-up: method as in PMID 25114127, PMID 25487807; conditions: human PK data with preclinical PK/PD analysis; cited from earlier work
[6] = test system: rodent malaria model; set-up: method as in PMID 20813948; conditions: cited from earlier work
[7] = 10 mg single oral dose, 8 healthy subjects, IBSM

C[C@H]1Cc2c([nH]c3cc(Cl)c(F)cc23)[C@@]2(N1)C(=O)Nc1ccc(Cl)cc12 [cipargamin]
time to observed reduction in parasitemia ([1]; 10 mg single oral dose): ≤ 24 h
log10 parasite reduction ratio over 48 h postdose (PRR48), cohort-specific [1, 7]: 3.63
parasite clearance half-life, cohort-specific [1, 7]: 3.99 h
time of parasite regrowth after dosing ([1]; 10 mg single oral dose, all 8 subjects): 3 to 8 days
Log10PRR48 (95%CI) ([1]; subject 1): 4.22 (3.15, 5.29)
Parasite Clearance Half-Life (95%CI) ([1]; subject 1): 3.42 (2.73, 4.59) h
Log10PRR48 (95%CI) ([1]; subject 2): 5.84 (4.79, 6.90)
Parasite Clearance Half-Life (95%CI) ([1]; subject 2): 2.47 (2.10, 3.02) h
Log10PRR48 (95%CI) ([1]; subject 3): 4.09 (3.45, 4.73)
Parasite Clearance Half-Life (95%CI) ([1]; subject 3): 3.53 (3.05, 4.19) h
Log10PRR48 (95%CI) ([1]; subject 4): 2.18 (1.62, 2.73)
Parasite Clearance Half-Life (95%CI) ([1]; subject 4): 6.64 (5.30, 8.90) h
Log10PRR48 (95%CI) ([1]; subject 5): 4.23 (3.48, 4.98)
Parasite Clearance Half-Life (95%CI) ([1]; subject 5): 3.42 (2.90, 4.15) h
Log10PRR48 (95%CI) ([1]; subject 6): 1.28 (0.85, 1.71)
Parasite Clearance Half-Life (95%CI) ([1]; subject 6): 11.39 (8.47, 17.37) h
Log10PRR48 (95%CI) ([1]; subject 7): 4.12 (3.22, 5.03)
Parasite Clearance Half-Life (95%CI) ([1]; subject 7): 3.51 (2.87, 4.49) h
Log10PRR48 (95%CI) ([1]; subject 8): 4.63 (4.34, 4.92)
Parasite Clearance Half-Life (95%CI) ([1]; subject 8): 3.12 (2.93, 3.33) h
drug exposure (AUC0–∞) in IBSM subjects, fold lower than in patients with naturally acquired malaria [2]: around 3 fold
AUC(0-inf) ([2]; po): 1950 ± 753 ng·h/mL
CL/F, mean ± SD (% CV) ([2]; po): 5.72 ± 1.93 (33.7) liters/h
Cmax ([2]; po): 101 ± 18.3 ng/mL
Tmax ([2]; po): 2 h
Vd/F ([2]; po): 209 ± 54.5 L
AUC(0-t) ([2]; po, AUC0–24 h, mean ± SD (% CV)): 1010 ± 242 ng·h/mL
AUC(0-t) ([2]; po, AUC0–last, mean ± SD (% CV)): 1850 ± 690 ng·h/mL
half-life ([2]; po, t1/2 (elimination half-life), mean ± SD (% CV)): ~26 h
Abdominal discomfort ([3]; 10 mg, N=8): 4 (50.0) n (%)
Alanine aminotransferase increased ([3]; 10 mg, N=8): 2 (25.0) n (%)
Arthralgia ([3]; 10 mg, N=8): 2 (25.0) n (%)
Aspartate aminotransferase increased ([3]; 10 mg, N=8): 1 (12.5) n (%)
Cardiac disorders (system organ class) ([3]; 10 mg, N=8): 1 (12.5) n (%)
Chills ([3]; 10 mg, N=8): 3 (37.5) n (%)
Decreased appetite ([3]; 10 mg, N=8): 3 (37.5) n (%)
Diarrhoea ([3]; 10 mg, N=8): 2 (25.0) n (%)
Drug-induced liver injury ([3]; 10 mg, N=8): 1 (12.5) n (%)
Eye disorders (system organ class) ([3]; 10 mg, N=8): 1 (12.5) n (%)
Gamma-glutamyltransferase increased ([3]; 10 mg, N=8): 2 (25.0) n (%)
Gastrointestinal disorders (system organ class) ([3]; 10 mg, N=8): 5 (62.5) n (%)
General disorders and administration site conditions (system organ class) ([3]; 10 mg, N=8): 6 (75.0) n (%)
Haemoptysis ([3]; 10 mg, N=8): 1 (12.5) n (%)
Head discomfort ([3]; 10 mg, N=8): 1 (12.5) n (%)
Headache ([3]; 10 mg, N=8): 5 (62.5) n (%) and 5 n (%)
Hepatobiliary disorders (system organ class) ([3]; 10 mg, N=8): 1 (12.5) n (%)
Hyperhidrosis ([3]; 10 mg, N=8): 3 (37.5) n (%)
Investigations (system organ class) ([3]; 10 mg, N=8): 3 (37.5) n (%)
Lethargy ([3]; 10 mg, N=8): 4 (50.0) n (%)
Liver function test abnormal ([3]; 10 mg, N=8): 1 (12.5) n (%)
Liver tenderness ([3]; 10 mg, N=8): 1 (12.5) n (%)
Malaise ([3]; 10 mg, N=8): 4 (50.0) n (%)
Metabolism and nutrition disorders (system organ class) ([3]; 10 mg, N=8): 3 (37.5) n (%)
Musculoskeletal and connective tissue disorders (system organ class) ([3]; 10 mg, N=8): 5 (62.5) n (%)
Myalgia ([3]; 10 mg, N=8): 5 (62.5) n (%) and 5 n (%)
Nausea ([3]; 10 mg, N=8): 1 (12.5) n (%)
Neck pain ([3]; 10 mg, N=8): 1 (12.5) n (%)
Nervous system disorders (system organ class) ([3]; 10 mg, N=8): 6 (75.0) n (%)
Non-cardiac chest pain ([3]; 10 mg, N=8): 1 (12.5) n (%)
Photophobia ([3]; 10 mg, N=8): 1 (12.5) n (%)
Pyrexia ([3]; 10 mg, N=8): 6 (75.0) n (%) and 6 n (%)
Rales ([3]; 10 mg, N=8): 1 (12.5) n (%)
Rash ([3]; 10 mg, N=8): 1 (12.5) n (%)
Respiratory, thoracic and mediastinal disorders (system organ class) ([3]; 10 mg, N=8): 3 (37.5) n (%)
Rhinorrhoea ([3]; 10 mg, N=8): 1 (12.5) n (%)
Skin and subcutaneous tissue disorders (system organ class) ([3]; 10 mg, N=8): 4 (50.0) n (%)
Subjects with at least one adverse event ([3]; 10 mg, N=8): 8 (100) n (%)
Tachycardia ([3]; 10 mg, N=8): 1 (12.5) n (%)
Urticaria ([3]; 10 mg, N=8): 1 (12.5) n (%)
AEs leading to discontinuation: No. (%) of subjects ([3]; 10 mg, 8 subjects): 0 (0)
AEs leading to discontinuation: No. of AEs ([3]; 10 mg, 8 subjects): 0
AEs mild in severity, of all AEs ([3]; 10 mg, 8 subjects): 68/89
Any AEs, cipargamin related: No. (%) of subjects ([3]; 10 mg, 8 subjects): 4 (50.0)
Any AEs, cipargamin related: No. of AEs ([3]; 10 mg, 8 subjects): 10
Any AEs: No. (%) of subjects with at least 1 AE ([3]; 10 mg, 8 subjects): 8 (100)
Any AEs: No. of AEs ([3]; 10 mg, 8 subjects): 89
Moderate AEs (grade 2), cipargamin related: No. (%) of subjects ([3]; 10 mg, 8 subjects): 2 (25.0)
Moderate AEs (grade 2), cipargamin related: No. of AEs ([3]; 10 mg, 8 subjects): 2
Moderate AEs (grade 2): No. (%) of subjects ([3]; 10 mg, 8 subjects): 7 (87.5)
Moderate AEs (grade 2): No. of AEs ([3]; 10 mg, 8 subjects): 18
SAEs: No. (%) of subjects ([3]; 10 mg, 8 subjects): 3 (37.5)
SAEs: No. of AEs ([3]; 10 mg, 8 subjects): 3
Severe AEs (grade 3), cipargamin related: No. (%) of subjects ([3]; 10 mg, 8 subjects): 2 (25.0)
Severe AEs (grade 3), cipargamin related: No. of AEs ([3]; 10 mg, 8 subjects): 2
Severe AEs (grade 3): No. (%) of subjects ([3]; 10 mg, 8 subjects): 2 (25.0)
Severe AEs (grade 3): No. of AEs ([3]; 10 mg, 8 subjects): 3
hematology, urinalysis, or electrocardiogram (ECG) parameters ([3]; 10 mg, 8 subjects): no clinically significant abnormalities
maximum ALT, times ULN ([3]; subject 1): 5.2 × ULN
maximum AST ([3]; subject 1): 88 U/liter
maximum AST, times ULN ([3]; subject 1): 2.2 × ULN
maximum ALT ([3]; subject 1, onset 8 days after dosing): 208 U/liter
ALT ([3]; subject 3, 8 days after dosing): 187 U/liter
ALT, times ULN ([3]; subject 3, 8 days after dosing): 4.6 × ULN
AST ([3]; subject 3, 8 days after dosing): 106 U/liter
AST, times ULN ([3]; subject 3, 8 days after dosing): 2.6 × ULN
GGT ([3]; subject 3, 8 days after dosing): 215 U/liter
GGT, times ULN ([3]; subject 3, 8 days after dosing): 4.3 × ULN
bilirubin ([3]; subject 3, 8 days after dosing): 74 µmol/L
bilirubin, times ULN ([3]; subject 3, 8 days after dosing): 3.7 × ULN
conjugated bilirubin ([3]; subject 3, 8 days after dosing): 22 µmol/L
conjugated bilirubin, times ULN ([3]; subject 3, 8 days after dosing): 3.1 × ULN
peak ALT, times ULN ([3]; subject 8): 24.1 × ULN
peak AST ([3]; subject 8): 443 U/liter
peak AST, times ULN ([3]; subject 8): 11 × ULN
peak GGT ([3]; subject 8): 159 U/liter
peak GGT, times ULN ([3]; subject 8): 3.1 × ULN
peak ALT ([3]; subject 8, onset 11 days after dosing): 964 U/liter
in vitro activity against P. falciparum stages [4]: active against both asexual and sexual stages
inhibition of early- and late-stage gametocyte development in vitro [4]: potent inhibitor
inhibition of oocyst development in vitro [4]: potent inhibition
daily dose predicted to be sufficient to clear parasitemia in malaria patients [5]: 30 mg
cure in rodent malaria model [6]: single-dose cure was demonstrated
